The structures appear in SMILES notation. In brackets after ≈: the same amount, converted by molar mass. Some results are limits rather than exact numbers.

Assay type in all cases: functional
Assay [1] concerns Rhizoctonia solani. Description: In vivo fungicidal activity against Rhizoctonia solani in rice seedlings assessed as control of sheath blight disease at 500 ppm by curative foliar treatment.
Assay [2] deals with Rhizoctonia solani. The assay is described as follows: Fungicidal activity against Rhizoctonia solani by agar dilution method.
In assay [3] the test system is Nakataea oryzae. The assay is described as follows: Fungicidal activity against Magnaporthe salvinii by agar dilution method.
Assay [4] relates to Bipolaris oryzae. Description: Fungicidal activity against Bipolaris oryzae by agar dilution method.
Assay [5] concerns Pyricularia oryzae. Description: Fungicidal activity against Magnaporthe oryzae by agar dilution method.
Assay [6] relates to Pyricularia oryzae. The assay is described as follows: Fungicidal activity against Magnaporthe oryzae in rice seedlings assessed as control of rice blast at 500 ppm by curative foliar treatment.
Assay [7] has as its system Pyricularia oryzae. The assay is described as follows: Fungicidal activity against Magnaporthe oryzae in rice seedlings assessed as control of rice blast at 500 ppm by preventive foliar treatment.
Assay [8] concerns Fusarium fujikuroi. The assay is described as follows: Fungicidal activity against Fusarium fujikuroi by agar dilution method.
Assay [9] concerns Fusarium fujikuroi. Description: Fungicidal activity against Fusarium fujikuroi assessed as infected rice seedlings in seed disinfection against bakanae disease at 1000 ppm by soaking method.
Assay [10] has as its system Rhizoctonia solani. Description: In vivo fungicidal activity against Rhizoctonia solani in rice seedlings assessed as control of sheath blight disease at 250 ppm by curative foliar treatment.

`CCCC(C)(C)c1ccc2oc(N)c(C(N)=O)c(=O)c2c1`: the Activity in assay [1] is 100%. The MIC was more than 100 mg/L in assay [2], 6.25 mg/L (≈ 21.7 µM) in assay [3], more than 100 mg/L in assay [4] and 1.56 mg/L (≈ 5.41 µM) in assay [5].
Consider `CC(C)(C)c1ccc2oc(N)c(C(N)=O)c(=O)c2c1`, for which the Activity in assay [6] amounted to 96%; in assay [7], 81%; in [9], 3%; in [1], 100%. Moreover, the MIC in assay [8] came to 12.5 mg/L (≈ 48 µM); in [2], 0.78 mg/L (≈ 3 µM); in assay [3] it was 0.78 mg/L (≈ 3 µM); in assay [4], 6.25 mg/L (≈ 24 µM); in assay [5] it was 0.78 mg/L (≈ 3 µM).
As to `CCC(C)(C)c1ccc2oc(N)c(C(N)=O)c(=O)c2c1`, the Activity in [1] was 100%. Moreover, the MIC in assay [2] is more than 100 mg/L; in assay [3], 6.25 mg/L (≈ 22.8 µM); in assay [4] it was 50 mg/L (≈ 182 µM); in assay [5], 3.12 mg/L (≈ 11.4 µM).
The corresponding values for `CCC(C)(CC)c1ccc2oc(N)c(C(N)=O)c(=O)c2c1` are 100%, more than 100 mg/L, 3.12 mg/L (≈ 10.8 µM), more than 100 mg/L and 1.56 mg/L (≈ 5.41 µM).
The corresponding values for `CC(C)C(C)(C)c1ccc2oc(N)c(C(N)=O)c(=O)c2c1` are 100%, more than 100 mg/L, 6.25 mg/L (≈ 21.7 µM), more than 100 mg/L and 3.12 mg/L (≈ 10.8 µM).
The corresponding values for `NC(=O)c1c(N)oc2ccc(F)cc2c1=O` are 100%, 12.5 mg/L (≈ 56.3 µM), 25 mg/L (≈ 113 µM), more than 100 mg/L and 25 mg/L (≈ 113 µM).
As to `NC(=O)c1c(N)oc2ccc(Cl)cc2c1=O`, the Activity in assay [10] worked out at 96%. Also, the MIC was 6.25 mg/L (≈ 26.2 µM) in assay [2], 12.5 mg/L (≈ 52.4 µM) in assay [3], more than 100 mg/L in assay [4] and 3.12 mg/L (≈ 13.1 µM) in assay [5].
For the molecule `NC(=O)c1c(N)oc2ccc(Br)cc2c1=O`, in assay [1], the Activity worked out at 100%. For the same molecule, the MIC in assay [2] was 3.12 mg/L (≈ 11 µM); in [3], 1.56 mg/L (≈ 5.51 µM); in [4], more than 100 mg/L; in assay [5], 1.56 mg/L (≈ 5.51 µM).
As to `NC(=O)c1c(N)oc2ccc(I)cc2c1=O`, the Activity in assay [1] was 100%. The MIC stood at 12.5 mg/L (≈ 37.9 µM) in assay [2], 3.12 mg/L (≈ 9.45 µM) in assay [3], 12.5 mg/L (≈ 37.9 µM) in assay [4] and 3.12 mg/L (≈ 9.45 µM) in [5].
`NC(=O)c1c(N)oc2c(Cl)cc(Cl)cc2c1=O`: in assay [1], the Activity worked out at 100%. Further, the MIC in assay [2] was 100 mg/L (≈ 366 µM); in assay [3], more than 100 mg/L; in [4] it was more than 100 mg/L; in assay [5] it was more than 100 mg/L.
As to `NC(=O)c1c(N)oc2c(Br)cc(Br)cc2c1=O`, the Activity in assay [1] turned out to be 76%. The MIC in assay [2], in assay [3], in assay [4] and in [5] was more than 100 mg/L each time.
With `O=c1[nH]cnc2oc3ccccc3c(=O)c12`, the Activity in [1] was determined as 0%. Moreover, the MIC in [2], in [3], in assay [4] and in assay [5] was more than 100 mg/L each time.
As for `CC(=O)Nc1oc2ccccc2c(=O)c1C(N)=O`, in assay [1], the Activity is given as 90%. Further, the MIC in assay [2] is 25 mg/L (≈ 102 µM); in [3] it was 100 mg/L (≈ 406 µM); in assay [4] it was more than 100 mg/L; in assay [5], 50 mg/L (≈ 203 µM).
The corresponding values for `CC(C)(C)c1ccc2oc3nc[nH]c(=O)c3c(=O)c2c1` are 0%, more than 100 mg/L, more than 100 mg/L, more than 100 mg/L and more than 100 mg/L.
The corresponding values for `CC(=O)Nc1oc2ccc(C(C)(C)C)cc2c(=O)c1C(N)=O` are 100%, 6.25 mg/L (≈ 20.7 µM), 6.25 mg/L (≈ 20.7 µM), 100 mg/L (≈ 331 µM) and 3.12 mg/L (≈ 10.3 µM).
Taken in the same sequence, the figures for `CCOC(=O)Nc1oc2ccc(C(C)(C)C)cc2c(=O)c1C(N)=O` were 100%, 50 mg/L (≈ 150 µM), 25 mg/L (≈ 75.2 µM), more than 100 mg/L and 25 mg/L (≈ 75.2 µM).
For the molecule `CNC(=O)Nc1oc2ccc(C(C)(C)C)cc2c(=O)c1C(N)=O`, the Activity in assay [1] was 100%. Also, the MIC in assay [2] was more than 100 mg/L; in assay [3] it was 0.78 mg/L (≈ 2.46 µM); in assay [4], 100 mg/L (≈ 315 µM); in assay [5] it was 0.78 mg/L (≈ 2.46 µM).
For the molecule `CNc1oc2ccc(C(C)(C)C)cc2c(=O)c1C(N)=O`, the Activity in assay [1] stood at 100%. Moreover, the MIC in [2] came out at 25 mg/L (≈ 91.1 µM); in assay [3] it was 1.56 mg/L (≈ 5.69 µM); in assay [4] it was 25 mg/L (≈ 91.1 µM); in assay [5] it was 1.56 mg/L (≈ 5.69 µM).
For the molecule `Cc1oc2ccccc2c(=O)c1C(N)=O`, in assay [1], the Activity is listed as 0%. Also, the minimum inhibitory concentration (MIC) in assay [2], in assay [3], in assay [4] and in assay [5] was more than 100 mg/L each time.
For the molecule `N#Cc1c(N)oc2ccccc2c1=O`, the Activity in [1] amounted to 0%. In addition, the MIC in assay [2], in [3], in assay [4] and in assay [5] was more than 100 mg/L throughout.
As for `NC(=O)c1c(N)oc2ccccc2c1=O`, the Activity in [10] is listed as 100%. In addition, the MIC is 12.5 mg/L (≈ 61.2 µM) in assay [2], 12.5 mg/L (≈ 61.2 µM) in assay [3], more than 100 mg/L in assay [4] and 25 mg/L (≈ 122 µM) in assay [5].
Take `Cc1ccc2oc(N)c(C(N)=O)c(=O)c2c1`: in assay [10], the Activity came out at 100%. Moreover, the MIC came to 6.25 mg/L (≈ 28.6 µM) in [2], 6.25 mg/L (≈ 28.6 µM) in [3], 25 mg/L (≈ 115 µM) in assay [4] and 6.25 mg/L (≈ 28.6 µM) in assay [5].
Take `CCc1ccc2oc(N)c(C(N)=O)c(=O)c2c1`: the Activity in assay [10] is 90%. Further, the figures for the MIC in [2], in [4] and in assay [5] were 3.25 mg/L (≈ 14 µM), 25 mg/L (≈ 108 µM) and 0.78 mg/L (≈ 3.36 µM), respectively.
`CC(C)c1ccc2oc(N)c(C(N)=O)c(=O)c2c1`: the Activity is 94% in assay [6], 74% in assay [7], 6% in assay [9] and 85% in [1]. For the same molecule, the MIC is more than 100 mg/L in assay [8]; 100 mg/L (≈ 406 µM) in assay [2]; 3.12 mg/L (≈ 12.7 µM) in assay [3]; 100 mg/L (≈ 406 µM) in assay [4]; 1.56 mg/L (≈ 6.33 µM) in assay [5].
As to `CCCCc1ccc2oc(N)c(C(N)=O)c(=O)c2c1`, the Activity in assay [1] was 90%. Further, the MIC in assay [2] is more than 100 mg/L; in assay [3], 50 mg/L (≈ 192 µM); in assay [4], more than 100 mg/L; in [5], 50 mg/L (≈ 192 µM).
With `CCC(C)c1ccc2oc(N)c(C(N)=O)c(=O)c2c1` (centres undefined), the Activity in [6] was determined as 96%; in assay [7], 19%; in assay [9] it was 6.5%; in assay [1], 79%. The MIC in assay [8] is more than 100 mg/L; in [2], 6.25 mg/L (≈ 24 µM); in assay [3], 0.78 mg/L (≈ 3 µM); in [4], 25 mg/L (≈ 96 µM); in [5], 0.78 mg/L (≈ 3 µM).
Turning to `C/C(=N/Nc1nc(C)cc(C)n1)c1ccccc1C` [FERIMZONE], the figures for the Activity in assay [6], in assay [7] and in assay [1] were 100%, 99% and 100%, respectively. The MIC is more than 100 mg/L in [8]; 50 mg/L (≈ 197 µM) in [2]; 1.56 mg/L (≈ 6.13 µM) in assay [3]; 25 mg/L (≈ 98.3 µM) in assay [4]; 3.12 mg/L (≈ 12.3 µM) in assay [5].

These data come from ChEMBL document CHEMBL3046963, “Fungicidal Activity of 2-Aminochromone-3-carboxamides” (1990).
